From patent US20150352108A1, “AMINO-PYRIMIDINE COMPOUNDS AS INHIBITORS OF TBK1 AND/OR IKK EPSILON” (Alzheimer's Institute of America, priority 2009, published 2015)
Like-named read-outs stand apart in the source and are kept apart here.

Columns and labels:
[1] = test system: IKKε-mediated phosphorylation of IRF3; experiment: In-situ phosphorylation of IRF3 (pIRF3 Ser396 ELISA) in HEK293T cells cotransfected with IRF3 and IKKε; assay type: cell-based; conditions: Homo sapiens, HEK-293T
Method in brief: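 For the IRF3 ELISA, HEK293T cells cotransfected with IRF3 and IKKε were replated at 20,000/well and treated 20 h. Phospho-Ser396 IRF3 was measured by ELISA and normalised to DMSO, with viability checked by CellTiter-Glo. For IRF7, cells transfected with IRF7 and TBK1 were treated overnight, and pSer477/Ser479 IRF7 was detected by Western blot.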

IKKε = target: T1, IKKε (Homo sapiens, UniProt Q14164); experiment: In-vitro IKKε kinase assay ([γ33]ATP filter-plate); assay type: biochemical
T1 construct: His-tag; made in house; host or cells: Sf9 insect cells
T1 sequence (Q14164 1-716): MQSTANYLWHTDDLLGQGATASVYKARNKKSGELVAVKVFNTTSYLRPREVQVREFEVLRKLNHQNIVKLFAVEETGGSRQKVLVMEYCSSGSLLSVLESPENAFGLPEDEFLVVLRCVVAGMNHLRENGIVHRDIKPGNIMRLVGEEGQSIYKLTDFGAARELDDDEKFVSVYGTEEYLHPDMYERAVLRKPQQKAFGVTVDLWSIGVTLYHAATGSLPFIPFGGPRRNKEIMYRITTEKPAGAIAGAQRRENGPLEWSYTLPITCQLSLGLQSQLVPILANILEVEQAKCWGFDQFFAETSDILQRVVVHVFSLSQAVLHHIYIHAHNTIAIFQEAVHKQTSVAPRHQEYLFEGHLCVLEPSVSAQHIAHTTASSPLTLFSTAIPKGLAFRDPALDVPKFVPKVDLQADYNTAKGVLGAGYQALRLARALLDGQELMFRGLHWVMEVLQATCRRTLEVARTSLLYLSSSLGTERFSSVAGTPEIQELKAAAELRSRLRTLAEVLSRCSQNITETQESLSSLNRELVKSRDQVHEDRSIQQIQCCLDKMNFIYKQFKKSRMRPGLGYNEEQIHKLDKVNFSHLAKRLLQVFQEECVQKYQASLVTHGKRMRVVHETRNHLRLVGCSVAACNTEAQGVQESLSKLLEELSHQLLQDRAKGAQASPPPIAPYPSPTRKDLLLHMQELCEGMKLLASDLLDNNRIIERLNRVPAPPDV
Method in brief: (§1)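 His-tagged Sf9-expressed kinases at 0.1 or 0.02 μg/ml (TBK1) and 0.1 or 0.015 μg/ml (IKKε) for normal and sensitized formats, with myelin basic protein or casein substrate. ATP was at 2×Km (60 μM TBK1, 32 μM IKKε) plus 0.3 μCi [γ33]ATP. Reactions ran 30-45 min, were captured on P-81 filters, and counts were normalized to DMSO.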

TBK1 = target: T2, TBK1 (Homo sapiens, UniProt Q9UHD2); experiment: In-vitro TBK1 kinase assay ([γ33]ATP filter-plate); assay type: biochemical
T2 construct: His-tag; made in house; host or cells: Sf9 insect cells
T2 sequence (Q9UHD2 1-729): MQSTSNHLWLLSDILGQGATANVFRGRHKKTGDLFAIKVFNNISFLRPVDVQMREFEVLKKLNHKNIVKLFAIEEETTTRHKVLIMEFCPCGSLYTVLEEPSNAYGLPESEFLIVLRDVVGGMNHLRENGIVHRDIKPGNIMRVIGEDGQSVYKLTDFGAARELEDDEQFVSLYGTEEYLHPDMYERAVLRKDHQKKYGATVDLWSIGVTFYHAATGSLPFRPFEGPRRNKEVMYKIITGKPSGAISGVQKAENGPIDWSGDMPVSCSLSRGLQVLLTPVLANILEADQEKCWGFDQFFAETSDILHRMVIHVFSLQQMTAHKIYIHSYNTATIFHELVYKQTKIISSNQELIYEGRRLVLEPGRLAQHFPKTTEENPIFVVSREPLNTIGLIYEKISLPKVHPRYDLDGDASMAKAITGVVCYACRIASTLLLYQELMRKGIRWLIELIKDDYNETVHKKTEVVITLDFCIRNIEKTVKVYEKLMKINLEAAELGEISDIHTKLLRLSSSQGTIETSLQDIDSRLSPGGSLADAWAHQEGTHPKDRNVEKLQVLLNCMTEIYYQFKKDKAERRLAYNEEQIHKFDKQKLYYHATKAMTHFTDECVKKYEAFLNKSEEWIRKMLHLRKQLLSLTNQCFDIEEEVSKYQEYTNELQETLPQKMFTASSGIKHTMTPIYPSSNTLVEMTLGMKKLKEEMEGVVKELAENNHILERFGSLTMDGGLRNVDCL
Method in brief: as §1

[2] = HEK293T cells in culture, Table 3, read-out: pIRF3 ELISA IC50
[3] = HEK293T cells, 20 hours, text bins, read-out: IC50 for inhibition of the in-situ IKKε-mediated phosphorylation of IRF3
[4] = text bins, read-out: IC50 for inhibition of the kinase activity of IKKε
[5] = text bins, read-out: IC50 for inhibition of the kinase activity of TBK1

| SMILES | IC50 [1, 2] | IC50 [1, 3] | IC50 (IKKε; Table 3, read-out: IKKε IC50) | IC50 (IKKε; [4]) | IC50 (TBK1; Table 3, read-out: TBK1 IC50) | IC50 (TBK1; [5]) |
| --- | --- | --- | --- | --- | --- | --- |
| CNS(=O)(=O)Cc1cccc(Nc2nccc(-c3ccc(OC4CCOCC4)c(C#N)c3)n2)c1 [compound 648, 1-[3-({4-[3-Cyano-4-(tetrahydro-2H-pyran-4-yloxy)phenyl]pyrimidin-2-yl}amino)phenyl]-N-methylmethane-sulfonamide] | 179 nM | 100 to 250 nM | 3.9 nM | < 5 nM | 0.5 nM | < 10 nM |
| COc1cc(Nc2nccc(-c3ccc(OC4CCOCC4)c(C#N)c3)n2)ccc1C(=O)N1CCN(C(C)C)CC1 [compound 503, 5-{2-[(3-methoxy-4-{[4-(propan-2-yl)piperazin-1-yl]carbonyl}phenyl)amino]pyrimidin-4-yl}-2-(tetrahydro-2H-pyran-4-yloxy)benzonitrile] | – | < 100 nM | – | < 5 nM | – | < 10 nM |
| COc1cc(Nc2nccc(-c3ccc(OC4CCOCC4)c(C#N)c3)n2)ccc1S(=O)(=O)N(C)C1CCN(C)CC1 [Example 212] | – | < 100 nM | – | < 5 nM | – | < 10 nM |
| CCOC(=O)C(C)NCc1ccc(Nc2nccc(-c3ccc(OC4CCOCC4)c(C#N)c3)n2)cc1 (stereo not drawn) [compound 489, ethyl N-[4-({4-[3-cyano-4-(tetrahydro-2H-pyran-4-yloxy)phenyl]pyrimidin-2-yl}amino)benzyl] alaninate] | – | 100 to 250 nM | – | < 5 nM | – | < 10 nM |
| CN(C)CCNS(=O)(=O)c1ccc(Nc2nccc(-c3ccc(OC4CCOCC4)c(C#N)c3)n2)cc1 [compound 334, 4-({4-[3-cyano-4-(tetrahydro-2H-pyran-4-yloxy)phenyl]pyrimidin-2-yl}amino)-N-[2-(dimethylamino)ethyl] benzenesulfonamide] | – | 100 to 250 nM | – | < 5 nM | – | < 10 nM |
| N#Cc1cc(-c2ccnc(Nc3ccc(N4CCOCC4)cc3)n2)ccc1NC(=O)CC(F)(F)F [Example 93, N-[2-cyano-4-(2-{[4-(morpholin-4-yl)phenyl]amino}pyrimidin-4-yl)phenyl]-3,3,3-trifluoropropanamide] | 139 nM | 100 to 250 nM | 0.7 nM | < 5 nM | 0.3 nM | < 10 nM |
| CN1CCC(NCc2cccc(Nc3nccc(-c4ccc(OC5CCOCC5)c(C#N)c4)n3)c2)CC1 [Example 271, 5-{2-[(3-{[(1-Methylpiperidin-4-yl)amino]methyl}phenyl)amino]pyrimidin-4-yl}-2-(tetrahydro-2H-pyran-4-yloxy)benzonitrile] | – | < 100 nM | – | < 5 nM | – | < 10 nM |
| COCCNCc1ccc(Nc2nccc(-c3ccc(OCC(C)C)c(C#N)c3)n2)cc1 [compound 651] | – | < 100 nM | – | < 5 nM | – | < 10 nM |
| COc1cc(Nc2nccc(-c3ccc(OC4CCOCC4)c(C#N)c3)n2)ccc1C(=O)NCCN(C)C [Example 2, 4-({4-[3-cyano-4-(tetrahydero-2H-pyran-4-yloxy)phenyl]pyrimidin-2-yl}amino)-N-[2-(dimethylamino)ethyl]-2-methoxybenzamide] | 71.9 nM | < 100 nM | 1.1 nM | < 5 nM | 0.4 nM | < 10 nM |
| COc1ccc(Nc2nccc(-c3ccc(OC4CCOCC4)c(C#N)c3)n2)cc1OCCCN1CCN(C(C)C)CC1 [compound 523, 5-{2-[(4-methoxy-3-{3-[4-(propan-2-yl)piperazin-1-yl]propoxy}phenyl)amino]pyrimidin-4-yl}-2-(tetrahydro-2H-pyran-4-yloxy)benzonitrile] | – | < 100 nM | – | < 5 nM | – | < 10 nM |
| COc1ccc(-c2ccnc(Nc3ccc(N4CCOCC4)c(OC)c3)n2)cc1C#N [Example 157, 2-Methoxy-5-(2-{[3-methoxy-4-(morpholin-4-yl)phenyl]amino}pyrimidin-4-yl)benzonitrile] | – | 250 to 500 nM | – | < 5 nM | – | < 10 nM |
